From US20230114728A1 (Venatorx Pharmaceuticals, Inc., priority 2019, published 2023)
Converted amounts (≈) assume the structure as drawn.

Assays:
[1] = target: T1, E. coli K12 PBP3 (Escherichia coli, UniProt P0AD68); assay: biochemical; type: binding
T1 construct: made in house
In short: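 Fluorescence polarization (ex 490/em 520 nm) competition of inhibitors against Bocillin-FL at 0.1 μM, read up to 60 min. Final PBP levels: E. coli PBP3 1.5 μM; A. baumannii PBP2 2.5 μM, PBP3 0.2 μM in Tris pH 8.0/NaCl/glycerol/Tween 20; N. gonorrhoeae PBP2 […] in Hepes pH 8.0/NaCl/glycerol. EC50 = concentration halving PBP-bound Bocillin-FL.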

[2] = test system: N. gonorrhoeae WHO L; assay: Liquid broth MIC in Fastidious broth; type: cell-based; details: Neisseria gonorrhoeae; N. gonorrhoeae strain WHO L; Fastidious broth; read-out: Minimum Inhibitory Concentration, N. gonorrhoeae WHO L
In short: (§1)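 Colonies were swabbed from chocolate agar after 24 h growth and standardised by optical density at 600 nm. Compounds were serially diluted twofold in Fastidious broth, and bacteria added to give 5×10^5 CFU/mL. After about 24 h at 36 °C in 5% CO2, the lowest concentration allowing under 10% growth was taken as MIC.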

[3] = test system: N. gonorrhoeae FA1090; assay: Liquid broth MIC in Fastidious broth; type: cell-based; details: Neisseria gonorrhoeae; N. gonorrhoeae strain FA1090; Fastidious broth; read-out: Minimum Inhibitory Concentration, N. gonorrhoeae FA1090
In short: as §1

[4] = test system: N. gonorrhoeae WHO Z; assay: Liquid broth MIC in Fastidious broth; type: cell-based; details: Neisseria gonorrhoeae, read-out: Minimum Inhibitory Concentration, N. gonorrhoeae WHO Z
In short: (§2)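 Strains bearing mosaic PBP2 grown 24 h on chocolate agar (36° C, 5% CO2), suspended in saline and added to 2-fold compound dilutions in Fastidious broth at 5×10^5 CFU/mL. After ~24 hours at 36° C with 5% CO2, MIC taken visually as lowest well with <10% growth relative to full growth.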

[5] = test system: N. gonorrhoeae WHO G; assay: Liquid broth MIC in Fastidious broth; type: cell-based; details: Neisseria gonorrhoeae; N. gonorrhoeae strain WHO G; Fastidious broth; read-out: Minimum Inhibitory Concentration, N. gonorrhoeae WHO G
In short: as §1

[6] = test system: N. gonorrhoeae WHO Q; assay: Liquid broth MIC in Fastidious broth; type: cell-based; details: Neisseria gonorrhoeae, read-out: Minimum Inhibitory Concentration, N. gonorrhoeae WHO Q
In short: as §2

[7] = test system: N. gonorrhoeae ATCC 49226; assay: Liquid broth MIC in Fastidious broth; type: cell-based; details: Neisseria gonorrhoeae, ATCC49226; N. gonorrhoeae strain ATCC 49226; Fastidious broth; read-out: Minimum Inhibitory Concentration, N. gonorrhoeae ATCC 49226
In short: as §1

[8] = test system: N. gonorrhoeae WHO K; assay: Liquid broth MIC in Fastidious broth; type: cell-based; details: Neisseria gonorrhoeae, read-out: Minimum Inhibitory Concentration, N. gonorrhoeae WHO K
In short: as §2

[9] = target: T2, N. gonorrhoeae PBP2 (Neisseria gonorrhoeae, UniProt P08149); assay: Bocillin-FL fluorescence polarization competition binding assay, N. gonorrhoeae PBP2; details: fluorescence polarization competition binding assay using Bocillin-FL; read-out: N. gonorrhoeae PBP2 Potency
T2 construct: made in house
Description: Example I: Experimental Method for Penicillin-Binding Protein Binding Assays with Bocillin-FL Via Fluorescence Polarization
To determine the ability of boronic acid-based test PBP inhibitors to bind Penicillin Binding Proteins (PBPs), Bocillin-FL (fluorescently-labeled penicillin V; ThermoFisher Scientific) was used in a fluorescence polarization (FP) competition binding assay to assess inhibitor binding to PBP2, PBP3 or PBP4 from Escherichia coli (K12), PBP3 from Pseudomonas aeruginosa (PA01), PBP1a, PBP2 and PBP3 from Acinetobacter baumannii (ATCC 19606), and PBP2 from Neiserria gonorrheae (FA19). PBPs were cloned and purified as described previously (E. coli PBPs, King, D. T, et al., ACS Infectious Diseases 2015, 1, 175-184; P. aeruginosa PBP3, Han et. al., PNAS 2010, 107 (51), 22002-22007; A. baumannii PBPs, Penwell et. al., Antimicrob. Agents Chemother. 2015, 59 (3), 1680-1689; N. gonorrhoeae PBP2, Singh et. al., J Biol. Chem. 2019, 294 (38), 14020-14032). To establish assay conditions for competition binding, enzyme titration/saturation binding experiments were initially performed. Bocillin-FL was prepared at 0.2 μM in a buffer comprised of 50 mM Hepes (pH 8.0), 300 mM NaCl and 5% (v/v) glycerol for reactions with E. coli, P. aeruginosa and N. gonorrhoeae PBPs, and 25 mM Tris (pH 8.0), 200 mM NaCl and 10% (v/v) glycerol and 0.005% (v/v) Tween 20 for reactions with A. baumannii PBPs. Saturation binding was performed by mixing 40 μl of PBP solutions ranging in concentrations from 0-24 μM with 40 μl of the 0.2 μM Bocillin-FL solution, in individual wells of a black 384-well microplate. FP was measured immediately upon mixing (Excitation, 490 nm; Emission, 520 nm; g-factor, 0.96), using a Cytation3 (BioTek) microplate reader and measured continuously for up to 120 minutes. […] The competition binding assay (80 μl final volume) was validated using beta-lactams and PBPs at final concentrations of: 1.5 μM, E. coli PBP3; 0.75 μM, P. aeruginosa PBP3; 1 μM A. baumannii PBP1a; 2.5 μM A. baumannii PBP2; 0.2 μM A. baumannii PBP3; and […] N. gonorrhoeae PBP2. Bocillin-FL was at 0.1 μM (0.05 μM with A. baumannii PBP1a) and beta-lactam concentrations ranged from 0-1000 μM. […] Bocillin-FL was added and the FP immediately measured for up to 60 minutes (90 minutes for E. coli PBP2). […] The beta-lactam potency was reported as the concentration of beta-lactam required to reduce the amount of PBP bound-Bocillin-FL by 50% (EC50). […] Binding assays for boronic acid PBP inhibitors were performed in an identical fashion for the respective PBPs

[10] = target: T3, P. aeruginosa PBP3 (Pseudomonas aeruginosa, UniProt G3XD46); assay: Bocillin-FL fluorescence polarization competition binding assay, P. aeruginosa PBP3; details: fluorescence polarization competition binding assay using Bocillin-FL
T3 construct: made in house
In short: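 Binding of boronic acid inhibitors to purified Pseudomonas aeruginosa (PA01) PBP3 was measured by fluorescence polarization competition with Bocillin-FL, a fluorescent penicillin V. Reactions of 80 μl contained 0.75 μM PBP3 and 0.1 μM Bocillin-FL in 50 mM Hepes (pH 8.0), 300 mM NaCl and 5% (v/v) glycerol, in black 384-well plates. FP (Excitation 490 nm, Emission 520 nm) was read for up to 60 minutes. EC50 is the concentration that halves PBP-bound Bocillin-FL.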

T1 sequence (P0AD68 1-577): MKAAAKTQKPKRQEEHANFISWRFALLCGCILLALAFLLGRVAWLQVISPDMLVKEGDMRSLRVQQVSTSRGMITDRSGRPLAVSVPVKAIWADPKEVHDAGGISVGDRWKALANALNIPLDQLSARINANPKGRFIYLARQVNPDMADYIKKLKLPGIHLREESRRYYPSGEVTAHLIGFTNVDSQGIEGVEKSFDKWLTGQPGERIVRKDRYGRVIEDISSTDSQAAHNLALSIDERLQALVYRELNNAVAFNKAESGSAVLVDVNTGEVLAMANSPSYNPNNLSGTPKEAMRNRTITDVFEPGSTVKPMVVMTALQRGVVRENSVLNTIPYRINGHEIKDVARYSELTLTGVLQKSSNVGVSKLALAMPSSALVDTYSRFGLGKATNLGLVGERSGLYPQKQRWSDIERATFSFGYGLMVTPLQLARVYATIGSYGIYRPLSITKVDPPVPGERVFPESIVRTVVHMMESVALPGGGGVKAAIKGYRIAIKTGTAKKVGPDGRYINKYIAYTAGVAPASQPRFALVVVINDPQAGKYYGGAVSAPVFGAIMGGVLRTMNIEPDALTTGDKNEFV
T3 sequence (G3XD46 whole entry): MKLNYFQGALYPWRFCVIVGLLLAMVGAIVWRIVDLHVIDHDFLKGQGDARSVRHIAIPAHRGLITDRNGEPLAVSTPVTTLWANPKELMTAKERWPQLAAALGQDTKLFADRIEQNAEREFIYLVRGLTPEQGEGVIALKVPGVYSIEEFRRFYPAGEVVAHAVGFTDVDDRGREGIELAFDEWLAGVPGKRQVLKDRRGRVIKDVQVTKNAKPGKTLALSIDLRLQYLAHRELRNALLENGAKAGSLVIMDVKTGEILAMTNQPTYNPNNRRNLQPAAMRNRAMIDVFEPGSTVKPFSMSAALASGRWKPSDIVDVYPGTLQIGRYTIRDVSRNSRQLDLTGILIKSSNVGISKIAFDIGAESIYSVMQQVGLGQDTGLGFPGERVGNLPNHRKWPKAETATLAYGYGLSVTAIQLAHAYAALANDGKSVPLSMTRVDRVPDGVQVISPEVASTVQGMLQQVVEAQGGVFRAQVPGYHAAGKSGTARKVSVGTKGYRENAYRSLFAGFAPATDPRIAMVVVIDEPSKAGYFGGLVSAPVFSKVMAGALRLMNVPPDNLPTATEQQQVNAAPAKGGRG
T2 sequence (P08149 whole entry): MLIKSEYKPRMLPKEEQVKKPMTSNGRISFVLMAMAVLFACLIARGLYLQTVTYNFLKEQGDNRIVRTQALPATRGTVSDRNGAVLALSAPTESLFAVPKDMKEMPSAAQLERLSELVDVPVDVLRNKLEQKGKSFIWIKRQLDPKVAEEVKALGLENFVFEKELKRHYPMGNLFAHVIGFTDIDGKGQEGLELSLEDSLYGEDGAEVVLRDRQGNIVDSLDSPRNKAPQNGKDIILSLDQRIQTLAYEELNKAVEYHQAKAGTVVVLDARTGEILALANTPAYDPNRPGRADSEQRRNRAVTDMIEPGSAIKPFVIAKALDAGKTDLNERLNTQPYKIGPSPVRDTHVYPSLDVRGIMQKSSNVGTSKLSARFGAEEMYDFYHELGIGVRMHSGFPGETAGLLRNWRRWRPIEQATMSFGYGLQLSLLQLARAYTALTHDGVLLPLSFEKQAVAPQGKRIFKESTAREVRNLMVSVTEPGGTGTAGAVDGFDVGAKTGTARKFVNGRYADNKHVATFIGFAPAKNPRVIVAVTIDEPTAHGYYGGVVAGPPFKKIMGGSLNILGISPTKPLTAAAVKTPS

Structure (SMILES)	EC50 [1]	MIC [2]	MIC [3]	MIC [4]	MIC [5]	MIC [6]	MIC [7]	MIC [8]	EC50 [9]	P. aeruginosa PBP3 Potency [10]
CCN1CCN(C(=O)N[C@@H](C(=O)N[C@H]2Cc3cccc(C(=O)O)c3OB2O)c2cc(F)c(C(=O)O)cc2Cl)C(=O)C1=O (single isomer, unassigned) [Example 148]	< 30 µM	> 64 µg/mL	0.25 to 0.5 µg/mL (≈ 0.413 to 0.827 µM)	4 to 8 µg/mL (≈ 6.61 to 13.2 µM)	1 to 2 µg/mL (≈ 1.65 to 3.31 µM)	4 to 8 µg/mL (≈ 6.61 to 13.2 µM)	4 to 8 µg/mL (≈ 6.61 to 13.2 µM)	4 to 8 µg/mL (≈ 6.61 to 13.2 µM)	< 10 µM	D (D represents a potency <10 μM)
CCN1CCN(C(=O)NC(C(=O)N[C@H]2Cc3cccc(C(=O)O)c3OB2O)c2cccc(C(=O)O)c2)C(=O)C1=O (stereo partly drawn) [Example 113, (3R)-3-(2-(3-carboxyphenyl)-2-(4-ethyl-2,3-dioxopiperazine-1-carboxamido)acetamido)-2-hydroxy-3,4-dihydro-2H-benzo[e][1,2]oxaborinine-8-carboxylic acid]	< 30 µM	> 64 µg/mL	0.25 to 0.5 µg/mL (≈ 0.453 to 0.905 µM)	16 to 32 µg/mL (≈ 29 to 57.9 µM)	4 to 8 µg/mL (≈ 7.24 to 14.5 µM)	16 to 32 µg/mL (≈ 29 to 57.9 µM)	4 to 8 µg/mL (≈ 7.24 to 14.5 µM)	> 64 µg/mL	< 10 µM	D (D represents a potency <10 μM)
C[C@@H](O)[C@@H](NC(=O)N1CCN(CCNC(=O)c2c(F)cc(O)c(O)c2Cl)C(=O)C1=O)C(=O)N[C@H]1Cc2ccc(F)c(C(=O)O)c2OB1O [Example 102, (R)-3-((2R,3R)-2-(4-(2-(2-chloro-6-fluoro-3,4-dihydroxybenzamido)ethyl)-2,3-dioxopiperazine-1-carboxamido)-3-hydroxybutanamido)-7-fluoro-2-hydroxy-3,4-dihydro-2H-benzo[e][1,2]oxaborinine-8-carboxylic acid]	30 to 500 µM	> 64 µg/mL	16 to 32 µg/mL (≈ 22.9 to 45.9 µM)	> 64 µg/mL	16 to 32 µg/mL (≈ 22.9 to 45.9 µM)	> 64 µg/mL	> 64 µg/mL	> 64 µg/mL	10 to 30 µM	D (D represents a potency <10 μM)
CCN1CCN(C(=O)NC(C(=O)N[C@H]2Cc3cccc(C(=O)O)c3OB2O)c2c(F)c(F)c(O)c(F)c2F)C(=O)C1=O (stereo partly drawn) [Example 175, (3R)-3-(2-(4-ethyl-2,3-dioxopiperazine-1-carboxamido)-2-(2,3,5,6-tetrafluoro-4-hydroxyphenyl)acetamido)-2-hydroxy-3,4-dihydro-2H-benzo[e][1,2]oxaborinine-8-carboxylic acid]	< 30 µM	4 to 8 µg/mL (≈ 6.71 to 13.4 µM)	< 0.125 µg/mL	1 to 2 µg/mL (≈ 1.68 to 3.35 µM)	0.25 to 0.5 µg/mL (≈ 0.419 to 0.839 µM)	1 to 2 µg/mL (≈ 1.68 to 3.35 µM)	1 to 2 µg/mL (≈ 1.68 to 3.35 µM)	1 to 2 µg/mL (≈ 1.68 to 3.35 µM)	< 10 µM	D (D represents a potency <10 μM)
NCCCN1CCN(C(=O)N[C@@H](C(=O)N[C@H]2Cc3ccc(F)c(C(=O)O)c3OB2O)c2cc(F)c(O)c(O)c2Cl)C(=O)C1=O (single isomer, unassigned) [Example 180]	< 30 µM	> 64 µg/mL	4 to 8 µg/mL (≈ 6.25 to 12.5 µM)	> 64 µg/mL	16 to 32 µg/mL (≈ 25 to 50 µM)	> 64 µg/mL	16 to 32 µg/mL (≈ 25 to 50 µM)	> 64 µg/mL	> 100 µM	D (D represents a potency <10 μM)
